Earlier results in US20070160647A1, “Materials for medical implants and occlusive devices” (Clarity Corporation, priority 2004, published 2007).

In the case of `Oc1cc(Cl)ccc1Oc1ccc(Cl)cc1Cl` [triclosan], the “solubility in DMSO and alcohols” value is listed as “highly soluble” and the solubility in water is listed as “insoluble”.
